Source: patent US6197760A (priority 2000, dated 2001)
Entries after “also recorded” stand apart in the source; their conditions may differ.

Assays:
[1] = patients treated with Ifos; cited from earlier work
[2] = test system: P388 leukemia; parameters: species or system murine; details: mouse, in vivo
[3] = test system: Lewis lung carcinoma; details: mouse, in vivo; for % ILS (increase in life span, excluding survivors) / Log kill total (Log10 cell kill) / Tumour-free survivors: ip
[4] = test system: MCF-7 mammary tumor xenograft; parameters: species or system human; details: in vivo, sc
[5] = test system: MX-1 mammary tumor xenograft; assay type: in vivo, human; details: experiment analogous to MCF-7
[6] = test system: L1210/0 leukemia; details: L1210/0, i.p. day 2 only at MTD (CPA 200, Ifos 431, IPM 100 mg/kg); for Day 60 survivors/total: tumor burden at start 8.5 × 10^8 cells
[7] = test system: M5076 sarcoma; test: Response of s.c. implanted M5076 sarcoma (Table 4); assay type: in vivo, murine
Description: Response of S.C. Implanted M5076 Sarcoma to Treatment with
The compounds were injected i.p. daily on days 11-15.

[8] = in vivo; details: mouse, ip
[9] = test system: experimental leukemias and solid tumors; parameters: species or system mice and rats; details: in vivo
[10] = test system: mammary tumor 16/C; parameters: species or system murine; details: mouse, in vivo
[11] = test system: L1210/CPA leukemia; assay type: in vivo, male CDF1 mice; details: L1210/CPA, i.p. day 2 only at MTD (CPA 200, Ifos 431, IPM 100 mg/kg); for Day 60 survivors/total: tumor burden at start 6.0 × 10^7 cells
[12] = in vivo; details: mouse, ip; remark: listed apart in the source
[13] = test system: LOX-IMVI melanoma; test: Evaluation against i.p. implanted LOX-IMVI melanoma (Table 6); assay type: in vivo, human; details: for 55-Day Surv./Total / % ILS / Median Day of Death: IP, Q1DX1 (1), 40 mg/kg/dose; for increase in life span (ILS) / survivors: Table 6
Description: BM-IPM was evaluated vs. human LOX-IMVI melanoma and produced a 52% increase in life span (ILS) and 20% survivors, while IPM yielded an identical ILS with no survivors.
Evaluation of BM-IPM Against I.P. Implanted Human
Treatment: IP: Q1DX1 (1) Therapeutic Response

[14] = metabolite of CPA; cited from earlier work
[15] = test system: mixedfunction oxidase activities (cytochrome P-450, aryl hydrocarbon hydroxylase, aminopyrinedemethylase); glutathione; details: cited from earlier work
[16] = test system: M5076 sarcoma; details: historical; cited from earlier work
[17] = test system: P388 leukemia; details: historical; cited from earlier work
[18] = clinical; cited from earlier work
[19] = 18 mg/kg i.p. daily on days 11-15
[20] = 27 mg/kg i.p. daily on days 11-15
[21] = 40 mg/kg i.p. daily on days 11-15

Compound | comparative activity against Lewis lung carcinoma [3] | cure rate [3] | % ILS (increase in life span, excluding survivors) [3] | Log kill total (Log10 cell kill) [3] | Tumour-free survivors [3] | Days delay (T-C) [4] | activity vs. MX-1 [5] | % ILS (dying mice only) [6] | Net log10 reduction in tumor burden after therapy [6] | Day 60 survivors/total [6] | MTD [8] | tumor response / comparative activity vs. 16/C [10] | % ILS (dying mice only) [11] | Net log10 reduction in tumor burden after therapy [11] | Day 60 survivors/total [11] | 55-Day Surv./Total [13] | % ILS [13] | Median Day of Death [13] | increase in life span (ILS) [13] | survivors [13] | further results
O=P(O)(NCCCl)NCCCl [IPM, isophosphoramide mustard] | equivalent activity at equal host toxicity | 50-70% | 34 | > 2.1 | 6/10 | 33.9 | good activity; also recorded: more active but less so than CPA and Ifos | +128% | 8 log10 | 0/10 | 100 mg/kg | limited regression | +114% | 7 log10 | 1/10 | 0/5 | +52% | 29.0 days | identical ILS | no survivors | metabolite of Ifos in patients [1]: major metabolite; log cell kill [2]: 4.8 log; 45-Day Surv/Total ([2]; ip, 100 mg/kg): 1/5; % ILS ([2]; ip, 100 mg/kg): +64; Approx. Net Log10 Change In Tumor Burden at End of Rx ([2]; ip, 100 mg/kg): -4.8; Median Day of Death ([2]; ip, 100 mg/kg): 18.0; Days delay (T-C) [7, 19]: 1.0 days; Days to 2 Doublings [7, 19]: 10.3 days; Tumor-free Surv/Total [7, 19]: 0/6; Days delay (T-C) [7, 20]: 3.3 days; Days to 2 Doublings [7, 20]: 12.6 days; Tumor-free Surv/Total [7, 20]: 0/6; Days delay (T-C) [7, 21]: 6.1 days; Days to 2 Doublings [7, 21]: 15.4 days; Tumor-free Surv/Total [7, 21]: 0/6; days T-C ([7]; Table 4, dose not given): 6.1 days; comparative therapeutic efficacy against experimental leukemias and solid tumors [9]: generally comparable to that of CPA and Ifos; MTD ([12]; MTD Dosage (highest non-toxic dose, LD10 or less)): 100 mg/kg
C=CC=O [acrolein] |  |  |  |  |  |  |  |  |  |  |  |  |  |  |  |  |  |  |  |  | teratogenicity [14]: teratogenic; liver toxicity [15]: glutathione depletion and destruction of mixedfunction oxidase activities
O=P1(N(CCCl)CCCl)NCCCO1 (stereo not shown) [CPA, cyclophosphamide] | equivalent activity at equal host toxicity | 50-70% | 68 | > 6.8 | 5/10 | 6.7 | high activity | +107% | 7 log10 | 0/10 | 200 mg/kg | none of which caused tumor regression | +57% | 4 log10 | 0/10 | 0/5 | +121% | 42.0 days | 121% | no survivors | comparative activity vs. M5076 sarcoma, historically [16]: comparably active to CM-IPM; comparative activity vs. P388 leukemia, historically [17]: comparably active to CM-IPM; toxicity in patients [18]: hemorrhagic cystitis; MTD [12]: 200 mg/kg
